The values that follow come from US7869664B2, “Systems and methods for alignment of objects in images” (priority 2007, dated 2011).

Data set [1] has as its system Ddit3, Dnajb1, and Gadd45ga. As to the kind of experiment: Hepatic gene expression profiles (microarrays) after acetaminophen treatment. The conditions noted are these: liver; SJL and three sensitive strains. It counts as in vivo, mouse. An excerpt: Differential susceptibility to a hepatotoxic dose of acetaminophen could result from differences in the rate of production of the reactive quinone metabolite that causes liver toxicity. […] Thus, a hepatotoxic dose of acetaminophen induces the formation of protein adducts and activates the DNA damage response in resistant SJL mice to the same extent as in the susceptible strains.
Therefore, the metabolites within the peaks that distinguished the response of the resistant strain from the three sensitive strains at zero and three hours after drug exposure were identified. […] Using resonance assignments and confirmation experiments with purified compounds, the identity of eight of these nine peaks was determined. Three peaks were assigned to glutathione. […] Five other metabolite peaks were assigned to alanine, lactate and betaine. Microarrays were simultaneously used to analyze gene expression in liver obtained from these four strains before (zero hr) and three hours after acetaminophen administration. […] This large number of differentially expressed genes limited the utility of analyzing the gene expression data by itself. However, an integrated analysis of the gene expression and metabolite data provided a more restricted set of pathways and genes to consider. […]

Data set [2] deals with hepatic acetaminophen-protein adducts. The conditions noted are these: resistant SJL strain compared with sensitive C57B6 strain; previously shown; cited from earlier work.
In a further data set the test system is inbred mouse strains. How it is done:
For the genetic analysis, the susceptibility of a panel of 16 inbred mouse strains to developing liver toxicity after a single 300 mg/kg intraperitoneal dose of acetaminophen was assessed. This dose is known to cause liver toxicity in mice. During the 24 hour period after dosing, serum alanine aminotransferase (ALT), morbidity and liver histochemistry were assessed as indices of liver toxicity.
Animal husbandry and drug treatment. Seven to eight week old male mice were obtained from Jackson Laboratory (Bar Harbor, Me.) and acclimatized for an additional week before use. The following 16 inbred mouse strains were studied: SJL, LGJ, BALB/cJ, DBA/2J, A/J, AKR/J, A/HeJ, 129/SvJ, B10.D2-H2/oSNJ, C57BL/6J, NZW/LaCJ, NZB/BInJ, MRL/MpJ, C3H/HeJ, LP/J, SM/J. The mice were housed under pathogen-free environment and provided food and water ad libitum with a 12h: 12h light: dark cycle until experimental use. Before each experiment, food was withheld from the animals overnight (greater than sixteen hours) to uniformly deplete hepatic glutathione stores. All mice were administered a single 300 mg/kg intraperitoneal dose of freshly prepared acetaminophen (Voigt Global Distribution Inc.) suspended in PBS (pH 7.4), and were allowed free access to food and water after treatment. The mice were euthanized by CO2 inhalation to collect blood samples and liver tissues at zero, three, and six hours after dosing. The remaining mice were monitored for 48 hours for the occurrence of acetaminophen-induced deaths. Blood samples were withdrawn by cardiac puncture and placed in EDTA-coated tubes, and plasma samples were isolated by centrifugation. Alanine aminotransferase (ALT) activity was measured at the Marshfield Clinic Laboratories (Marshfield, Wis.). Liver tissues were removed immediately and cut into two sections. The smaller section was fixed in buffered formalin, processed by standard histological techniques, stained with hematoxylin and eosin, and examined for histopathologic evidence of liver injury. The remaining sections were snap-frozen in liquid nitrogen and stored at −80° C. for gene expression and metabolite analysis.

A further data set deals with hepatic glutathione. As to the kind of experiment: Endogenous liver metabolite profiling by 1H-13C two-dimensional NMR after acetaminophen exposure. The format is in vivo, mouse. The conditions noted are these: three hours after acetaminophen administration. As to the method:
Analysis of acetaminophen-induced endogenous metabolite and gene expression changes. Endogenous metabolites and gene expression changes in liver were examined at 0, 3 and 6 hours after acetaminophen exposure in the resistant (SJL) and three sensitive strains (DBA, SMJ and C57) strains in order to identify the pathways and genes contributing to resistance to acetaminophen-induced liver toxicity. The endogenous metabolites were profiled using ^1H—^13C two-dimensional-NMR analysis. Over 400 metabolite peaks were quantified and analyzed by this method, and principal component analysis (PCA) (Duda, 2001, Pattern Classification, John Wiley & Sons, Inc., pp. 568-569, which is hereby incorporated by reference herein) was used to identify metabolite peaks that distinguished the response of the sensitive strain from the three resistant strains. […]
Therefore, the metabolites within the peaks that distinguished the response of the resistant strain from the three sensitive strains at zero and three hours after drug exposure were identified. […] Using resonance assignments and confirmation experiments with purified compounds, the identity of eight of these nine peaks was determined. […]
NMR spectra were recorded at 300°K on a Bruker Avance 600 MHz spectrometer operating at ^1H frequency of 599.99 MHz and ^13C frequency of 150.87 MHz using a 3 mm Nalorac microprobe with z-axis pulsed-field gradient. […]

Where two headings read alike, the source gives them in different places.

With `CC(=O)Nc1ccc(O)cc1` [acetaminophen], the “level of expression of three DNA damage response genes (Ddit3, Dnajb1, Gadd45ga)” value in data set [1] is recorded as “increased to the same extent in all four strains”. In addition, the “hepatic acetaminophen-protein adducts generated” value in data set [2] is reported as “same amount of hepatic acetaminophen-protein adducts”. Moreover, the mortality result with inbred mouse strains (15 sensitive strains, single 300 mg/kg intraperitoneal dose) was “mortality in a significant percent of the mice”; with inbred mouse strains (C57B6 mice, within six hours after dosing) it was 100%; in the data set with inbred mouse strains (SJL mice, single 300 mg/kg intraperitoneal dose) it was “no mortality”; with inbred mouse strains (three sensitive strains (C57BL6, DBA/2, SMJ), within forty-eight hours after treatment), “at least 60%”. Besides, the “time at which mortality occurred after dosing” value with inbred mouse strains (DBA/2 strain) was found to be 48 h; in the data set on inbred mouse strains (SMJ strain), 24 h. In addition, the survival result in the data set on inbred mouse strains (SJL mice, within forty-eight hours after treatment) is recorded as “all SJL mice survived”. Moreover, the “increase in serum ALT” value with inbred mouse strains (mouse, in vivo, ip, 300 mg/kg) is “much smaller and transient increase”. Also, in the data set with hepatic glutathione (SJL strain), the hepatic glutathione concentration entry is reported as “maintained its hepatic glutathione concentration”. In addition, the hepatic glutathione levels entry in the data set with hepatic glutathione (three sensitive strains) was “significantly decreased”.

Usually mortality stands for the share of the test organisms that died. Read a high mortality as a strong lethal effect.
